Here are results for 19 molecules from patent publication US20230257372A1 (CHONG KUN DANG PHARMACEUTICAL CORP., priority 2020, published 2023).

For assay [1], the target named is T1, human recombinant HDAC1 (Homo sapiens, UniProt Q13547).
T1 construct: purchased Enzo Life Science, Inc. BML-SE456
Nature of the assay: HDAC1 enzyme activity inhibition (HDAC Fluorimetric Drug Discovery Kit). The class given is biochemical. To be noted: read-out: HDAC1. The method, boiled down:
(§1)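 Five-fold compound dilutions incubated with […] recombinant enzyme and 10 μM fluorogenic Fluor de Lys substrate, 60 min at 30° C. Fluor de Lys Developer II then added for 30 min to generate the fluorescent read-out.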

Assay [2] deals with T2, human recombinant HDAC6 (Homo sapiens, UniProt Q9UBN7).
T2 construct: purchased Calbiochem Inc. 382180
T2 sequence (Q9UBN7 1-1215): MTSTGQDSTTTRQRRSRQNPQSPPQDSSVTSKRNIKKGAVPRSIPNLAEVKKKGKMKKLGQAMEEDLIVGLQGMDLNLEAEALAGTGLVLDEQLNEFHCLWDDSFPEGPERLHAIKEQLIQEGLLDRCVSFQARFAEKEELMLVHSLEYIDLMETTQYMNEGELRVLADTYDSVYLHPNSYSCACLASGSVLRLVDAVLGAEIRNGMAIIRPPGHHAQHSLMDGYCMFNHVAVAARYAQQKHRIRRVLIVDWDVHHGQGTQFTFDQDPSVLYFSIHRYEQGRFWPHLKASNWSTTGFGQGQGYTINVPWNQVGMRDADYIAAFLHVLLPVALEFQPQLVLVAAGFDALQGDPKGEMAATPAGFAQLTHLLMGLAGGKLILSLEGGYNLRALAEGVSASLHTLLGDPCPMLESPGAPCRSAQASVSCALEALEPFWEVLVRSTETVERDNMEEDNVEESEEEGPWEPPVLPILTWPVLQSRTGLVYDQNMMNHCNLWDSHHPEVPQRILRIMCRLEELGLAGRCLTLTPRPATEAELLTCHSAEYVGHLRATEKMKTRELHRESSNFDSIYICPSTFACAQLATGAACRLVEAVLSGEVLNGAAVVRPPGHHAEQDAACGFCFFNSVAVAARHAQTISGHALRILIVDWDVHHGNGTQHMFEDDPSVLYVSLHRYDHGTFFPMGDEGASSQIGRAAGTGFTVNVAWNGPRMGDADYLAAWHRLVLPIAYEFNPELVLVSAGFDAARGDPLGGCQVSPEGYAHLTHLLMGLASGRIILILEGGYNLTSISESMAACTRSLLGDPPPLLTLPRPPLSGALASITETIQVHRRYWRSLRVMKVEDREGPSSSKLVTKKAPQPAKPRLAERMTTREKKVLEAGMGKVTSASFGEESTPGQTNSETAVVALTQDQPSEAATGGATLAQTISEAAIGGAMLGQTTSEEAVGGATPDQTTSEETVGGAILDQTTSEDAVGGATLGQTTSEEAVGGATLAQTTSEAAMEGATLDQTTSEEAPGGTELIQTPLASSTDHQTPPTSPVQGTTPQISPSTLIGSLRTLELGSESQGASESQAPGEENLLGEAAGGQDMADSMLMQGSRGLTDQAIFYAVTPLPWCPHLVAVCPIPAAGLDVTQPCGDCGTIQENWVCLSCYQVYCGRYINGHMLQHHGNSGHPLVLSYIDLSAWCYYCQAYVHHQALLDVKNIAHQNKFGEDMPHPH
Nature of the assay: HDAC6 enzyme activity inhibition (HDAC Fluorimetric Drug Discovery Kit). It counts as biochemical. A digest of the protocol: as §1

Setting [3] is: human recombinant HDAC1, IC50 calculated with GraphPad Prism.
[4] abbreviates: human recombinant HDAC6, IC50 calculated with GraphPad Prism.
Setting [5] is: human recombinant HDAC1, Fluor de Lys substrate, 30° C. 60 minutes.
Where [6] appears, read: human recombinant HDAC6, same protocol as HDAC1.

Read-outs that look alike come from different tables or passages of the source.

T1 sequence (Q13547 whole entry): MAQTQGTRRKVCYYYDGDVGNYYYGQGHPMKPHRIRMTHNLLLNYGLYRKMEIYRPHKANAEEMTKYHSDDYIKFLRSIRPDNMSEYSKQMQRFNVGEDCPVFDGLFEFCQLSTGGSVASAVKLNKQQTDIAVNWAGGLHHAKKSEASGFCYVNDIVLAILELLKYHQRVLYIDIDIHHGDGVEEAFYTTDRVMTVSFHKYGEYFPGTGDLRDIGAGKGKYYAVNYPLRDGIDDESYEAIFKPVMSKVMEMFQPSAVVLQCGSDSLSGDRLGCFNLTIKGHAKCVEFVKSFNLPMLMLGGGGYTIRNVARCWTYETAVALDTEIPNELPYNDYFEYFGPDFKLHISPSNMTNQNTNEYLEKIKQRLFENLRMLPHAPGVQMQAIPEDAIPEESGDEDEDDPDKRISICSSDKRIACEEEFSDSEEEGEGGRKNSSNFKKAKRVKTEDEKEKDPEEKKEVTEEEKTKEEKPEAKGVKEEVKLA

Take `CN1CCC(c2cn(Cc3ccc(-c4nnc(C(F)F)o4)cn3)nn2)CC1` [Compound 3806, 2-(difluoromethyl)-5-(6-((4-(1-methylpiperidin-4-yl)-1H-1,2,3-triazol-1-yl)methyl)pyridin-3-yl)-1,3,4-oxadiazole]: the IC50 in assay [1] (setting [3]) is over 50000 nM; in assay [2] (setting [4]), 372 nM. Also, the “HDAC6 selectivity (fold)” value in assay [2] (HDAC1 IC50 / HDAC6 IC50) amounted to 134 fold.

Take `FC(F)c1nnc(-c2ccc(Cn3cc(-c4ccc(CN5CC6(COC6)C5)cc4)nn3)nc2)o1` [Compound 4561, 6-(4-(1-((5-(5-(difluoromethyl)-1,3,4-oxadiazol-2-yl)pyridin-2-yl)methyl)-1H-1,2,3-triazol-4-yl)benzyl)-2-oxa-6-azaspiro[3.3]heptane]: the IC50 is over 50000 nM in assay [1] (setting [5]) and 14 nM in assay [2] (setting [6]). In addition, the “HDAC6 selectivity (fold)” value in assay [2] (HDAC6 over HDAC1) was 3571 fold.

Consider `CC(C)N1CCN(c2ccc(F)c(-c3cn(Cc4ccc(-c5nnc(C(F)F)o5)cc4)nn3)c2)CC1` [Compound 4453, 2-(difluoromethyl)-5-(4-((4-(2-fluoro-5-(4-isopropylpiperazin-1-yl)phenyl)-1H-1,2,3-triazol-1-yl)methyl)phenyl)-1,3,4-oxadiazole], for which the figures for the IC50 in assay [1] (setting [3]) and in assay [2] (setting [4]) were over 50000 nM and 15.9 nM, respectively. Also, in assay [2] (HDAC1 IC50 / HDAC6 IC50), the “HDAC6 selectivity (fold)” value was determined as 3144 fold.

Consider `Fc1cc(-c2nnc(C(F)F)o2)cnc1Cn1cc(-c2cccnc2)nn1` [Compound 18305, 2-(difluoromethyl)-5-(5-fluoro-6-((4-(pyridin-3-yl)-1H-1,2,3-triazol-1-yl)methyl)pyridin-3-yl)-1,3,4-oxadiazole], for which the IC50 was over 50000 nM in assay [1] (setting [5]) and 92.7 nM in assay [2] (setting [6]). The “HDAC6 selectivity (fold)” value in assay [2] (HDAC6 over HDAC1) is listed as 539 fold.

With `FC(F)c1nnc(-c2ccc(Cn3cc(-c4ccc(Br)cn4)nn3)nc2)o1` [Compound 4180, 2-(6-((4-(5-bromopyridin-2-yl)-1H-1,2,3-triazol-1-yl)methyl)pyridin-3-yl)-5-(difluoromethyl)-1,3,4-oxadiazole], the IC50 is over 50000 nM in assay [1] (setting [3]) and 33.2 nM in assay [2] (setting [4]). The “HDAC6 selectivity (fold)” value in assay [2] (HDAC1 IC50 / HDAC6 IC50) stood at 1506 fold.

On to `FC(F)c1nnc(-c2ccc(Cn3cc(-c4ccc5c(CN6CCCC6)c[nH]c5c4)nn3)nc2)o1` [Compound 4493, 2-(difluoromethyl)-5-(6-((4-(3-(pyrrolidin-1-ylmethyl)-1H-indol-6-yl)-1H-1,2,3-triazol-1-yl)methyl)pyridin-3-yl)-1,3,4-oxadiazole], for which the IC50 in assay [1] (setting [3]) is over 50000 nM; in assay [2] (setting [4]), 6.5 nM. Moreover, the “HDAC6 selectivity (fold)” value in assay [2] (HDAC1 IC50 / HDAC6 IC50) is reported as 7692 fold.

On to `CC(=O)N1CCCC(c2cn(Cc3ccc(-c4nnc(C(F)F)o4)cn3)nn2)C1` (stereo not drawn) [Compound 4004, 1-(3-(1-((5-(5-(difluoromethyl)-1,3,4-oxadiazol-2-yl)pyridin-2-yl)methyl)-1H-1,2,3-triazol-4-yl)piperidin-1-yl)ethan-1-one], for which the values for the IC50 in assay [1] (setting [3]) and in assay [2] (setting [4]) were over 50000 nM and 332 nM, respectively. Further, in assay [2] (HDAC1 IC50 / HDAC6 IC50), the “HDAC6 selectivity (fold)” value is reported as 150 fold.

For the molecule `Fc1cc(-c2nnc(C(F)F)o2)ccc1Cn1cc(-c2ccc(CN3CCC(F)(F)CC3)nc2)nn1` [Compound 17778, 2-(difluoromethyl)-5-(4-((4-(6-((4,4-difluoropiperidin-1-yl)methyl)pyridin-3-yl)-1H-1,2,3-triazol-1-yl)methyl)-3-fluorophenyl)-1,3,4-oxadiazole], the IC50 was over 50000 nM in assay [1] (setting [5]) and 82.9 nM in assay [2] (setting [6]). Further, the “HDAC6 selectivity (fold)” value in assay [2] (HDAC6 over HDAC1) was determined as 603 fold.

Take `FC(F)c1nnc(-c2ccc(Cn3cc(C4CCCC4)nn3)nc2)o1` [Compound 3846, 2-(6-((4-cyclopentyl-1H-1,2,3-triazol-1-yl)methyl)pyridin-3-yl)-5-(difluoromethyl)-1,3,4-oxadiazole]: the IC50 was over 50000 nM in assay [1] (setting [3]) and 79.3 nM in assay [2] (setting [4]). In assay [2] (HDAC1 IC50 / HDAC6 IC50), the “HDAC6 selectivity (fold)” value is reported as 630 fold.

Take `CS(=O)(=O)N1CCC(c2cn(Cc3ccc(-c4nnc(C(F)F)o4)cn3)nn2)CC1` [Compound 3812]: the IC50 in assay [1] (setting [3]) is over 50000 nM; in assay [2] (setting [4]) it was 112 nM. Further, the “HDAC6 selectivity (fold)” value in assay [2] (HDAC1 IC50 / HDAC6 IC50) is 446 fold.

For `FC(F)c1nnc(-c2ccc(Cn3cc(-c4cccc(N5C[C@@H]6C[C@H]5CN6C5CCC5)c4)nn3)cc2)o1` [Compound 4322], the IC50 in assay [1] (setting [3]) is over 50000 nM; in assay [2] (setting [4]) it was 94 nM. Further, the “HDAC6 selectivity (fold)” value in assay [2] (HDAC1 IC50 / HDAC6 IC50) amounted to 531 fold.

Take `CCN1CCN(c2cccc(-c3cn(Cc4ccc(-c5nnc(C(F)F)o5)cn4)nn3)c2F)CC1` [Compound 4570, 2-(difluoromethyl)-5-(6-((4-(3-(4-ethylpiperazin-1-yl)-2-fluorophenyl)-1H-1,2,3-triazol-1-yl)methyl)pyridin-3-yl)-1,3,4-oxadiazole]: the figures for the IC50 in assay [1] (setting [5]) and in assay [2] (setting [6]) were over 50000 nM and 20.2 nM, respectively. Also, the “HDAC6 selectivity (fold)” value in assay [2] (HDAC6 over HDAC1) turned out to be 2475 fold.

Regarding `CN1CCC(Cc2cn(Cc3ccc(-c4nnc(C(F)F)o4)cn3)nn2)CC1` [Compound 4014, 2-(difluoromethyl)-5-(6-((4-((1-methylpiperidin-4-yl)methyl)-1H-1,2,3-triazol-1-yl)methyl)pyridin-3-yl)-1,3,4-oxadiazole], the figures for the IC50 in assay [1] (setting [3]) and in assay [2] (setting [4]) were over 50000 nM and 203 nM, respectively. The “HDAC6 selectivity (fold)” value in assay [2] (HDAC1 IC50 / HDAC6 IC50) worked out at 246 fold.

Take `CC(C)(F)CN1CCC(c2cn(Cc3ccc(-c4nnc(C(F)F)o4)cn3)nn2)CC1` [Compound 3895, 2-(difluoromethyl)-5-(6-((4-(1-(2-fluoro-2-methylpropyl)piperidin-4-yl)-1H-1,2,3-triazol-1-yl)methyl)pyridin-3-yl)-1,3,4-oxadiazole]: the results for the IC50 in assay [1] (setting [3]) and in assay [2] (setting [4]) were over 50000 nM and 293 nM, respectively. Moreover, in assay [2] (HDAC1 IC50 / HDAC6 IC50), the “HDAC6 selectivity (fold)” value is given as 171 fold.

Regarding `C[C@@H]1CN(c2cccc(-c3cn(Cc4ncc(-c5nnc(C(F)F)o5)cc4F)nn3)c2)C[C@H](C)N1` [Compound 18893, 2-(difluoromethyl)-5-(6-((4-(3-((3R,5S)-3,5-dimethylpiperazin-1-yl)phenyl)-1H-1,2,3-triazol-1-yl)methyl)-5-fluoropyridin-3-yl)-1,3,4-oxadiazole], the IC50 is over 50000 nM in assay [1] (setting [5]) and 129 nM in assay [2] (setting [6]). The “HDAC6 selectivity (fold)” value in assay [2] (HDAC6 over HDAC1) worked out at 388 fold.

Turning to `FC(F)c1nnc(-c2ccc(Cn3cc(-c4cccc5c4CN(C4COC4)C5)nn3)nc2)o1` [Compound 4599, 2-(difluoromethyl)-5-(6-((4-(2-(oxetan-3-yl)isoindolin-4-yl)-1H-1,2,3-triazol-1-yl)methyl)pyridin-3-yl)-1,3,4-oxadiazole], the IC50 in assay [1] (setting [5]) is over 50000 nM; in assay [2] (setting [6]), 75.5 nM. In addition, the “HDAC6 selectivity (fold)” value in assay [2] (HDAC6 over HDAC1) is 662 fold.

Consider `Fc1cc(-c2nnc(C(F)F)o2)ccc1Cn1cc(-c2ccc(CN3CCOCC3)cc2)nn1` [Compound 4471, 4-(4-(1-(4-(5-(difluoromethyl)-1,3,4-oxadiazol-2-yl)-2-fluorobenzyl)-1H-1,2,3-triazol-4-yl)benzyl)morpholine], for which the values for the IC50 in assay [1] (setting [3]) and in assay [2] (setting [4]) were over 50000 nM and 44.8 nM, respectively. The “HDAC6 selectivity (fold)” value in assay [2] (HDAC1 IC50 / HDAC6 IC50) was 1116 fold.

With `Fc1cc(-c2nnc(C(F)F)o2)ccc1Cn1cc(-c2cccc(N3CCN(C4CCC4)CC3)n2)nn1` [Compound 17364, 2-(4-((4-(6-(4-cyclobutylpiperazin-1-yl)pyridin-2-yl)-1H-1,2,3-triazol-1-yl)methyl)-3-fluorophenyl)-5-(difluoromethyl)-1,3,4-oxadiazole], the IC50 is over 50000 nM in assay [1] (setting [5]) and 51.2 nM in assay [2] (setting [6]). Besides, in assay [2] (HDAC6 over HDAC1), the “HDAC6 selectivity (fold)” value worked out at 976 fold.

`FC(F)c1nnc(-c2ccc(Cn3cc(-c4ccccc4N4CCOCC4)nn3)nc2)o1` [Compound 4104, 4-(2-(1-((5-(5-(difluoromethyl)-1,3,4-oxadiazol-2-yl)pyridin-2-yl)methyl)-1H-1,2,3-triazol-4-yl)phenyl)morpholin]: the IC50 in assay [1] (setting [3]) is 33000 nM; in assay [2] (setting [4]) it was 66 nM. Besides, the “HDAC6 selectivity (fold)” value in assay [2] (HDAC1 IC50 / HDAC6 IC50) is 500 fold.
